Values quoted from earlier work, collected in patent US12427123B2, “Phenylephrine hydrochloride compositions and containers” (Endo Operations Limited, priority 2020, dated 2025).
Where two headings read alike, the source gives them in different places.

Columns and labels:
[1] = not given; remark: listed apart in the source

solubility (chloroform) | solubility (ethanol) | solubility (ethyl ether) | solubility (water) | dose excreted unchanged in the urine ([1]; in vivo) [%] | α-phase half-life ([1]; intravenous administration, 2-compartment model, distribution from central compartment) [min] | optical stability (racemization as a function of pH) (solutions at pH 3.0 and pH 6.0) | SMILES
insoluble | freely soluble | insoluble | very soluble | – | – | – | CNC[C@H](O)c1cccc(O)c1.Cl [Phenylephrine hydrochloride]
– | – | – | – | 12 | < 5 | optically stable | CNC[C@H](O)c1cccc(O)c1 [phenylephrine]
